{"source": "patent US20240325544A1", "about": "“CATIONIC LIPID FOR COVALENT MODIFICATION OF PEPTIDES” (PharmalN Corporation, priority 2023, published 2024)", "key": {"[1]": {"system": "LM8 osteosarcoma cells", "experiment": "Orthotopic mouse model of lung metastasis using osteosarcoma LM8 cells with amputation (FIG. 11)", "format": "in vivo, mice", "conditions": "0.3 mg/kg SC with amputation on Day 7; Day 34", "procedure": "FIGS. 11A-11C. […] Error bars indicate standard error of the mean. […] Also illustrated in this diagram are the corresponding treatment schedules for SEQ ID NO: 31 and amputation. From tumor implantation, the SEQ ID NO: 31 treated group was dosed SC (0.3 mg/kg/0.1 μmol/kg in buffer) on Days 4-8, 11-15, 18-22, and 25-26. On Day 7 post-inoculation, all mice underwent amputation to remove the primary tumor. In place of treatment, the amputated control group also received buffer on the same days that SEQ ID NO: 31 was administered. Mice were sacrificed on Day 34, and lung tissues were harvested. FIGS. 11B and 11C) Lung tissues were soaked in 4% paraformaldehyde, paraffin-embedded, and sections were stained with hematoxylin and eosin (H&E). Lung images were observed using high-resolution microscopy (Keyence, Tokyo, Japan, #BZ-X700), and lung metastasis was evaluated by the direct count of present metastatic lung nodules. […]\nAnimal care and treatment: Male […] mice (7 weeks-old) were purchased from Kyudo (Saga, Japan) and maintained under a 12-hour light/12-hour dark cycle with free access to water and standard mouse diet (MF diet; Oriental Yeast Co., Ltd., Tokyo, Japan). […] Lung images were observed using the high-resolution microscopy (Keyence, Tokyo, Japan, #BZ-X700), and lung metastasis was evaluated by the direct count of present metastatic nodules (FIG. 11C). […]"}, "[2]": {"molecular_target": "T1, NPR-C (Homo sapiens, UniProt P17342)", "T1 construct": "HeLa cells (known to express NPR-C); host or cells: HeLa cells", "T1 sequence (P17342 27-541)": "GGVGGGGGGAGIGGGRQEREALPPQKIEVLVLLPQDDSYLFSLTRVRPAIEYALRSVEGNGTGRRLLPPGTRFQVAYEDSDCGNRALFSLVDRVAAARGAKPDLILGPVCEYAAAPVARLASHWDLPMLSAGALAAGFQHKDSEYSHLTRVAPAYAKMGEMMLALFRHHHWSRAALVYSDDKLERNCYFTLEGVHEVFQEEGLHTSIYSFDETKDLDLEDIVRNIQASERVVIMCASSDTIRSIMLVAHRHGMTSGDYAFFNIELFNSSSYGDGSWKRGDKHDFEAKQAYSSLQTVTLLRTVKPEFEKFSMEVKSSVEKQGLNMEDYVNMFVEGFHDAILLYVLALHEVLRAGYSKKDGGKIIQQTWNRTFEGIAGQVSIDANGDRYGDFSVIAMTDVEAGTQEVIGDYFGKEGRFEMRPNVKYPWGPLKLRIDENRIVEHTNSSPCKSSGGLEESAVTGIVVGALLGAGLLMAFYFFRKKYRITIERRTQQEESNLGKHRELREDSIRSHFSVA", "experiment": "cAMP baseline levels in HeLa cells (FIG. 13)", "format": "cell-based", "conditions": "10 μg/mL, 10 minutes, 1 mM IBMX", "procedure": "In this study, HeLa cells were cultured in Dulbecco modified Eagle medium (DMEM) supplemented with 10% FBS under 100% humidity and 5% CO2 at 37° C. The cells were harvested and suspended at a concentration of 10^7 cells/mL in ENGS and 5 uL of the cell suspension was added to each well of a 96-well low-adhesion plate. The cells (n=4 wells) were then treated with 5 uL of SEQ ID NO: 31 (final concentration of 10 μg/mL) in ENGS with 1 mM IBMX for 10 minutes. cAMP levels were evaluated using a cAMP assay kit (PerkinElmer, Waltham, MA, USA, #62AM4PEB) in accordance with its manufacture's protocol with a PerkinElmer plate reader. Statistical analysis was performed with GraphPad Prism against untreated control wells (n=4 wells) * P<0.05. The NPR-C receptor has been implicated in inhibiting adenylate cyclase activity, which would lead to a decrease in cyclic adenosine monophosphate (cAMP) production.\nIn vitro protocol: HeLa cells were purchased from ATCC (Manassas, VA, USA). […] Then, the cells (n=4 wells) were treated with 5 uL of SEQ ID NO: 31 (final concentration of 10 μg/mL) in ENGS with 1 mM IBMX (Fujifilm, Tokyo, Japan, #099-03411) for 10 minutes. cAMP levels were evaluated using a cAMP assay kit (PerkinElmer, Waltham, MA, USA, #62AM4PEB) in accordance with its manufacture's protocol with a plate reader (PerkinElmer, Waltham, MA, USA, #Nivo). […]"}}, "note": "Bridge positions count the residues as written; N and C are the ends. Square brackets hold non-standard residues; d marks the D form. Peptide text beside a SMILES is read from it. * marks the point of attachment. Palmitoyl = CCCCCCCCCCCCCCCC(=O)*; Dap = NC[C@H](N)C(=O)O; AEEA = NCCOCCOCC(=O)O"}
{"smiles": "CCCCCCCCCCCCCCCC(=O)NCCOCCOCC(=O)NCCOCCOCC(=O)NCCOCCOCC(=O)N[C@@H](CN)C(=O)N[C@@H](CN)C(=O)NCC(=O)N[C@@H](CC(C)C)C(=O)N[C@@H](CO)C(=O)N[C@@H](CCCCN)C(=O)NCC(=O)N[C@H]1CSSC[C@@H](C(=O)O)NC(=O)CNC(=O)[C@H](CC(C)C)NC(=O)CNC(=O)[C@H](CO)NC(=O)[C@H](CCC(N)=O)NC(=O)[C@H](CO)NC(=O)CNC(=O)[C@H]([C@@H](C)CC)NC(=O)[C@H](CCCNC(=N)N)NC(=O)[C@H](CC(=O)O)NC(=O)[C@H](CC(C)C)NC(=O)[C@H](CCCCN)NC(=O)[C@H](CC(C)C)NC(=O)CNC(=O)[C@H](Cc2ccccc2)NC1=O", "note": "[SEQ ID NO: 31] ({Palmitoyl-AEEA-AEEA-AEEA}-[Dap][Dap]GLSKGCFGLKLDRIGSQSGLGC-OH; disulfide 8-24; C-terminus assumed)", "values": [{"measurement": "Metastatic nodules present in the lung vs amputation alone", "setting": "[1]", "result": "significant reduction"}, {"measurement": "cAMP baseline levels of HeLa cells", "setting": "[2]", "result": "changes (inhibition) of cAMP baseline levels"}]}
